{"source": "patent US20240366567A1", "about": "“PHARMACEUTICAL COMBINATIONS COMPRISING A KRAS G12C INHIBITOR AND USES THEREOF FOR THE TREATMENT OF CANCERS” (NOVARTIS AG, priority 2021, published 2024)", "key": {"[1]": {"test_system": "KRAS G12C and CDKN2A-mutated LU99 xenograft", "assay": "LU99 xenograft, Compound A with ribociclib (Example 7)", "assay_type": "in vivo", "conditions": "LU99 xenograft in mice"}, "[2]": {"test_system": "KRAS G12C, PIK3CA and CDKN2A-mutated LU99 xenograft", "assay": "LU99 xenograft, single agent and double, triple, quadruple combinations (Example 8)", "assay_type": "in vivo, mice", "conditions": "7.5 mg/kg daily"}}}
{"smiles": "CN(C)C(=O)c1cc2cnc(Nc3ccc(N4CCNCC4)cn3)nc2n1C1CCCC1", "note": "[ribociclib, reference compound]", "values": [{"measurement": "effect on tumor growth", "setting": "[1]", "result": "did not have any effect on tumor growth"}]}
{"smiles": "C[C@@H]1OCC2(CCN(c3cnc(Sc4ccnc(N)c4Cl)c(N)n3)CC2)[C@@H]1N", "note": "[TNO155, (3S,4S)-8-(6-amino-5-((2-amino-3-chloropyridin-4-yl)thio)pyrazin-2-yl)-3-methyl-2-oxa-8-azaspiro[4.5]decan-4-amine, reference compound]", "values": [{"measurement": "effect on tumor growth compared to the vehicle group", "setting": "[2]", "result": "did not have any effect on tumor growth"}]}
